Data from patent US20070037870A1, “Novel substance having alpha-glucosidase inhibiting activity and food containing the same” (MORISHITA JINTAN CO., LTD., priority 2003, published 2007).
pIC50: −log10 of the molar value.

Legend:
[1] = biological target: T1, α-glucosidase (sucrase) (Rattus norvegicus, UniProt P23739); test: Measurement of sucrase (α-glucosidase) inhibiting activity with crude enzyme from rat intestinal acetone powder; assay type: biochemical; settings: for pIC50: crude rat intestinal enzyme, sucrose substrate, 0.1 M maleate buffer pH 6.0, 37° C., 30 minutes; for α-glucosidase inhibiting activity (in words): summary of Table 1 results
T1 construct: The resulting supernatant was separated as a crude enzyme stock solution; tissue SIGMA; host or cells: rat intestine (acetone powder)
Procedure: One gram intestinal acetone powder rat (manufactured by SIGMA) was suspended in 10 mL of 0.1 M maleate buffer, pH 6.0 and then centrifuged (3,000 rpm, 4° C., 20 min.). The resulting supernatant was separated as a crude enzyme stock solution. This crude enzyme stock solution was diluted at the degree of dilution previously determined in the following control test, to prepare a crude enzyme dilution which was then used in the subsequent measurement of sucrase inhibiting activity.
A buffer solution 50 μL and 100 μL of 74 mM aqueous sucrose solution were pipetted into each test tube and pre-heated for 3 minutes in a water bath at 37° C. A diluted crude enzyme stock solution 50 μL was added to this test tube and reacted at 37° C. for 30 minutes. After the reaction was finished, 800 μL purified water was added. The mixture was further heated at 80° C. for 3 minutes thereby inactivating the enzyme to terminate the reaction. The concentration of glucose in the reaction solution was quantified by using a commercial kit/mutarotase-glucose oxidase method (Glucose CII Test Wako, manufactured by Wako Pure Chemical Industries, Ltd.).
As the test substance, the reticulanol of the present invention, and Salacinol and kotalanol for comparison, all of which were obtained in Preparative Example 2 above, were used. A solution […] of the test substance in 0.1 M maleate buffer, pH 6.0 was introduced into each test tube (concentration of the test substance: 3 to 30 μg/mL), and 100 μL of 74 mM aqueous sucrose was pipetted into each test tube and pre-heated for 3 minutes in a water bath at 37° C. The above crude enzyme dilution 50 μL was added to each test tube and reacted at 37° C. for 30 minutes. After the reaction was finished, 800 μL purified water was added to each test tube, and the mixture was further heated at 80° C. for 3 minutes thereby inactivating the enzyme to terminate the reaction.
After the reaction was terminated, the concentration of glucose in the reaction solution was quantified by using the glucose CII Test Wako (manufactured by Wako Pure Chemical Industries, Ltd.).
An aqueous sucrose solution 100 μL was mixed with 50 μL of each test substance dissolved in a maleate buffer. Purified water 800 μL was added thereto and then 50 μL crude enzyme dilution was added thereto, and immediately the mixture was heated to […] to inactivate the enzyme. Thereafter, the concentration of glucose in the reaction solution was measured by the same method as described above.
Sucrase inhibiting activity was calculated from the following equation: Sucrase inhibiting activity (%)={(Glc0−Glcx)/Glc0}×100 wherein Glcx is a value obtained by subtracting the glucose concentration in the corresponding blank test from the concentration of glucose in the test sample, and Glc0 is the glucose concentration in the corresponding control.
An inhibition curve was prepared by plotting the inhibiting activity (%) calculated by the above equation on the ordinate and the concentration of each test substance (μg/mL) on the abscissa. From this inhibition curve, 50% inhibition concentration (IC50 value) was calculated as an indicator of sucrase inhibiting activity.

[2] = tested on: α-glucosidase; settings: compared with marketed synthetic medicine Glucobay; cited from earlier work

T1 sequence (P23739 whole entry): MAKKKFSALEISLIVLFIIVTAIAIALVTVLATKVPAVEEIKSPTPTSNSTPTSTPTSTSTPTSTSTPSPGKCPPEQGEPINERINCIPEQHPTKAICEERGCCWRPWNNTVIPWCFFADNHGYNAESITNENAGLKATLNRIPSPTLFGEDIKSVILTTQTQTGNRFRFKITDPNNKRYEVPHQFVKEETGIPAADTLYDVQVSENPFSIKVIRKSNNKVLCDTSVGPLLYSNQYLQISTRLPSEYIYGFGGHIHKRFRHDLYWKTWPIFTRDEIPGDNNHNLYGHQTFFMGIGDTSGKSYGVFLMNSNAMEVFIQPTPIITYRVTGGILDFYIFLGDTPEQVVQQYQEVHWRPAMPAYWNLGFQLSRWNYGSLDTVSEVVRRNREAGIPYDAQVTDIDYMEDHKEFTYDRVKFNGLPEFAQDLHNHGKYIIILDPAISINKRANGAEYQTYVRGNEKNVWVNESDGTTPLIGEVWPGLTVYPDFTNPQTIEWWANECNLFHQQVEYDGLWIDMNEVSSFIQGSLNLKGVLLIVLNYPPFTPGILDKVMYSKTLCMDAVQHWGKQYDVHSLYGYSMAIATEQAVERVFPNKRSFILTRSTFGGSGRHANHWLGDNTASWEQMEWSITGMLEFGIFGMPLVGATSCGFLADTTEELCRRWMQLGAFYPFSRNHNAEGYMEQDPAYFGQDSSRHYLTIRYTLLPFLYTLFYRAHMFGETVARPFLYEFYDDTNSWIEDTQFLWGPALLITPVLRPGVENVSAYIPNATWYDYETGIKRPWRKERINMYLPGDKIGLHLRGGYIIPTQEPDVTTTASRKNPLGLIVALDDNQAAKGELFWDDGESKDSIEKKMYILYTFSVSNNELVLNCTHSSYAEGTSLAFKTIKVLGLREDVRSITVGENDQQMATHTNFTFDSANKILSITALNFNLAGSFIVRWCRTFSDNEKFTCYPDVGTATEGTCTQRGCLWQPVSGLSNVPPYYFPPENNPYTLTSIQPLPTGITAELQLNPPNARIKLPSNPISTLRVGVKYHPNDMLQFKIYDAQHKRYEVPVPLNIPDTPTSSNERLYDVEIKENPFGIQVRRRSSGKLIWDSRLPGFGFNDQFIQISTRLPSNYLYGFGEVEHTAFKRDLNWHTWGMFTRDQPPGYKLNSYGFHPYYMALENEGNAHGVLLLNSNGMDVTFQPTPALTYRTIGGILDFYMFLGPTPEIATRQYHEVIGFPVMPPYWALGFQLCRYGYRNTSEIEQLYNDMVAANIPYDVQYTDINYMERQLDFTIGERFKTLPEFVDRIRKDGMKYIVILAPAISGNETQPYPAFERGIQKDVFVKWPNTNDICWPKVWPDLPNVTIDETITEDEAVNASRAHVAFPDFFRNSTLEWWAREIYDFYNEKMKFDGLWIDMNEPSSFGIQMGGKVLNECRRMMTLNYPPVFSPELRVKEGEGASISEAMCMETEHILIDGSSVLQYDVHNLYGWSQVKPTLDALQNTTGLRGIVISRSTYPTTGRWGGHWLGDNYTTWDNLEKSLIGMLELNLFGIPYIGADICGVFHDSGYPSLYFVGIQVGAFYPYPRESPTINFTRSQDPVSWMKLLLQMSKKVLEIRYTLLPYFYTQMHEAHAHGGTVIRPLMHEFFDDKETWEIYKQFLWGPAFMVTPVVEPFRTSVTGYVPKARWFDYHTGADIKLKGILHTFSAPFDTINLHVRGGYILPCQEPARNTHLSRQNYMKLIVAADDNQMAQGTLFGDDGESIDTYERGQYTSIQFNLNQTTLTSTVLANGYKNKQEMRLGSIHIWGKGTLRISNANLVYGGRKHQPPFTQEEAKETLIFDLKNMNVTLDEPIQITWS

| Structure (SMILES) | α-glucosidase inhibiting activity relative to Salacinol ([1]; compared with Salacinol) | pIC50 [1] | α-glucosidase inhibiting activity (in words) [1] | α-glucosidase inhibiting activity compared with Glucobay [2] |
| --- | --- | --- | --- | --- |
| O=S(=O)([O-])OC(C(O)C[S+]1CC(O)C(O)C1CO)C(O)C(O)CO (stereo not drawn) [Reticulanol, reticulanol] | at least twice as high | 6.02 | very strong α-glucosidase inhibiting activity | – |
| O=S(=O)([O-])O[C@H](CO)[C@@H](O)C[S+]1C[C@H](O)[C@@H](O)[C@@H]1CO (stereo partly drawn) [Salacinol] | – | 5.62 | very strong α-glucosidase inhibiting activity | almost equivalent |
| O=S(=O)([O-])OC(C(O)C[S+]1CC(O)C(O)C1CO)C(O)C(O)C(O)CO (stereo not drawn) [Kotalanol, kotalanol] | – | 6.37 | very strong α-glucosidase inhibiting activity | almost equivalent |
